In PMC10318527, “Utilization of dietary mixed-linkage β-glucans by the Firmicute Blautia producta” (The Journal of Biological Chemistry, 2023):
Entries after “also recorded” stand apart in the source; their conditions may differ.

What was measured:
BPGH16 mutant H398A = assay: Kinetics of BPGH16 mutant H398A (DNS assay); format: biochemical, Blautia producta ATCC 27340
Protocol: The residues R331, L358, E379, D381, E384, W362, and H398 of BpGH16MLG were mutated to Ala by the Q5Site-Directed Mutagenesis Kit (New England Biolabs, UK, catalogue no. E0554S). Wild-type plasmid BpGH16-pET28a(+) was used as a template, and mutagenic forward and reverse primers were developed using NEBaseChanger with subtle modifications (Table S4). A 25 μl PCR cocktail was prepared for mutating each residue. The final concentration of Q5 Hot Start High-Fidelity 2X Master Mix was 1X, each primer was at 0.5 μM, the amount of used template was 20 ng, and the rest of the volume was made up of nuclease-free water. PCR was executed using the following conditions-initial denaturation was performed at 98 °C for 1 min, for each cycle-denaturation, annealing, and extension (72 °C) were set for 10 s, 20 s, and 7 min, respectively. […] The mutant protein was then expressed as per the protocol mentioned earlier, and kinetics were performed with barley β-glucan.
Reactions were performed in 100 μl volume mixture using recombinant enzyme (final concentration at 0.1 mg/ml) in 50 mM sodium phosphate buffer (pH 5.7) at 37 °C for 1 h of incubation. […] Enzymatic assays were determined with 3,5- dinitrosalicylic acid (DNS) assay ([85]). […] Consequently, recorded the developed color spectrophotometrically at 575 nm ([85]). […]

BPGH16 mutant D381A = assay: Kinetics of BPGH16 mutant D381A (DNS assay); format: biochemical, Blautia producta ATCC 27340
Protocol: The residues R331, L358, E379, D381, E384, W362, and H398 of BpGH16MLG were mutated to Ala by the Q5Site-Directed Mutagenesis Kit (New England Biolabs, UK, catalogue no. E0554S). Wild-type plasmid BpGH16-pET28a(+) was used as a template, and mutagenic forward and reverse primers were developed using NEBaseChanger with subtle modifications (Table S4). A 25 μl PCR cocktail was prepared for mutating each residue. The final concentration of Q5 Hot Start High-Fidelity 2X Master Mix was 1X, each primer was at 0.5 μM, the amount of used template was 20 ng, and the rest of the volume was made up of nuclease-free water. PCR was executed using the following conditions-initial denaturation was performed at 98 °C for 1 min, for each cycle-denaturation, annealing, and extension (72 °C) were set for 10 s, 20 s, and 7 min, respectively. A total of 25 cycles were performed, and the final extension was for 5 min 5 μl PCR products were loaded on 0.8% agarose gel to conform to the amplification of the mutagenic gene. Ligation of PCR products and cleavage of methylated template DNA was then performed using 5 μl KLD reaction buffer and 1 μl KLD enzyme cocktail at RT for 1 h. It was then transformed into E. coli TOP-10 cells and plasmids were isolated. The obtained plasmids were sequenced to confirm the mutation at the desired location. Once mutation was confirmed in a gene, the mutant plasmid was transformed into Rosetta (DE3) cells for protein expression. The mutant protein was then expressed as per the protocol mentioned earlier, and kinetics were performed with barley β-glucan.
(§1) Reactions were performed in 100 μl volume mixture using recombinant enzyme (final concentration at 0.1 mg/ml) in 50 mM sodium phosphate buffer (pH 5.7) at 37 °C for 1 h of incubation. Then, reactions were terminated by boiling for 5 min. Enzymatic assays were determined with 3,5- dinitrosalicylic acid (DNS) assay ([85]). In brief, 0.05 g Na2SO3 and 1 g DNS were mixed in a 50 ml water-containing reagent bottle and stirred about 6 h using a magnetic stirrer. After that, 200 μl phenol was added and made up to 100 ml. A working solution of DNS was prepared by adding 50 μl glucose (20% (w/v) stock) in prepared 100 ml of reagent mixtures and immediately used for experiments without adding NaOH. 80 μl DNS reagent was added to the reaction mixtures and incubated at 100 °C for 10 min, followed by ice-cooling for 10 min. Consequently, recorded the developed color spectrophotometrically at 575 nm ([85]). A standard curve generated by different concentrations of maltose was used for determining released reducing sugars in each case.

BpGH16MLG (BPGH16) = assay: Michaelis-Menten kinetics of BpGH16MLG on β-glucans (DNS assay); format: biochemical, Blautia producta ATCC 27340
Protocol: as §1, with “Then,” for “Reactions were performed in 100 μl volume mixture using recombinant enzyme (final concentration at 0.1 mg/ml) in 50 mM sodium phosphate buffer (pH 5.7) at 37 °C for 1 h of incubation. Then,”

B. producta ΔSBP = assay: Growth of B. producta ΔSBP mutant on barley β-glucan; format: cell-based, Blautia producta; conditions: minimal medium containing 1% barley β-glucan
Protocol: The pBS423-ΔrepA- Δsbp was constructed by inserting 905 bp 5' and 1151 bp 3' flanking regions but lacking 1.2 kb core region of BpSBPMLG. It was inserted between Pst1 sites of the vector. GenScript Biotech (Singapore) PTE LTD carried out synthesis of the 2.2 kb flanking region and insertion into pBS423-ΔrepA. Competent cells of B. producta were prepared after inoculating 1 % primary culture into 300 ml GAM containing glucose (0.2%), sucrose (0.5 M), and glycine (1%). It was incubated until A600 reached 0.5-0.7 at 37 °C under anaerobic conditions. Afterward, cultures were transferred into 50 ml centrifuge tubes and centrifuged at 3000 × g for 20 min. The supernatant was discarded, and pellets were washed three times with washing solution (0.5 M sucrose and 10% glycerol) and stored at -80°C in aliquots of 50 µl.
The first cross-over event for knocking out was achieved by integrating 0.2 to 1 µg pBS423-ΔrepA- Δsbp in 50 µl competent cells of B. producta through electroporation using a condition of 25 µF, 2.0 kV, and 200 Ω. Gene Pulser Xcell (Bio-Rad Laboratories, Hercules, CA, USA) was used for this purpose. The treated cells were instantly mixed with 1 ml anaerobically pre-incubated GAM medium containing 0.2 % glucose, 0.5 M sucrose, 1 % glycine, 20 mM MgCl2.6H2O, and 2 mM CaCl2. […]

[1] = native BPGH16, DNS assay, pH 5.7, 37 °C

Substance: Barley β-glucan
- kcat (BPGH16 mutant H398A): 0 s⁻¹
- overall loss in activity (BPGH16 mutant D381A; D381A versus native enzyme): 1.34 fold
- reduction in kcat (BPGH16 mutant D381A; D381A versus native enzyme): 1.7 fold
- Km (BPGH16 mutant D381A; mutant D381A, DNS assay): 0.17 ± 0.04 mg/mL
- kcat (BPGH16 mutant D381A; mutant D381A, DNS assay): 35.7 ± 1.1 s⁻¹
- Km (BpGH16MLG (BPGH16); BpGH16MLG with barley MLG, no unit): 0.22 ± 0.04
- kcat (BpGH16MLG (BPGH16); BpGH16MLG with barley MLG, no unit, in 1/s): 62 ± 1.23
- Km (BpGH16MLG (BPGH16); [1]): 0.22 ± 0.04 mg/mL
- kcat (BpGH16MLG (BPGH16); [1]): 62 ± 1.2 s⁻¹
- growth of B. producta ΔSBP compared to wild-type strain (B. producta ΔSBP): significant retardation in growth; also recorded: retarded growth
